In US20080249103A1, “Sirtuin polymorphisms and methods of use thereof” (Sirtris Pharmaceuticals, Inc., priority 2006, published 2008):
Where two headings read alike, the source gives them in different places.

Experiments:
[1] = tested on: citrate synthase activity (mitochondrial capacity); assay: Citrate synthase activity in tissues of treated DIO mice; assay type: in vivo, C57BL/6 mice
Method: Citrate synthase (CS) activity in skeletal muscle (gastrocnemius) and white adipose tissue (epididymal) was determined after 11 weeks of treatment using the method described by Srere (Citrate synthase, Methods Enzymol. 1969, 13: 3-5) and Moyes et al. (Moyes CD, Mathieu-Costello 0A, Tsuchiya N, Filbum C, and Hansford RG. Mitochondrial biogenesis during cellular differentiation. Am. J. Physiol. 1997, 272 (Cell Physiol. 41): C1345-C1351.
Citrate Synthase is an enzyme of the Krebs cycle (also called […], TCA, or citric acid) cycle whose maximal activity (capacity) reflects mitochondrial oxidative capacity of the sample (Holloszy et al. 1970, Williams et al. 1986, Hood et al. 1989). […] Irrespective of this latter remark, changes in citrate synthase activity over time in a given individual reflect changes in tissue mitochondrial oxidative capacity. The five mice best representing the mean fasting blood glucose level of each group (DIO Vehicle and DIO SRT1933) were selected for this analysis. The tissues were lyzed in lx Extraction Buffer (20 mM N-2-hydroxyethylpiperazine-N′-2-2ethanesulfonic acid (HEPES), pH 7.2, 0.1% Triton X-100 and 1 mM EDTA with a polytron tissue homogenizer (OMNI International GLH) for 30 seconds at maximum speed (setting 6) on ice. A low-speed (13,000 rpm, microfuge) centrifugation step was then used to pellet big cell debris. The supernatant was used to assess citrate synthase activity. The samples are freeze-thawed 2 times to break the mitochondrial membrane and allow access to citrate synthase. Sample protein concentrations were determined according to the supplier's instructions, with Bio-Rad Protein Assay Dye Reagent Concentrate (cat#500-0006, […]) with Protein Standard I, bovine gamma globulin (cat#500-0005, […]) as standard. The citrate synthase activity assay was performed in a final total volume of 300 μl with 100 μg of protein per sample, measured in triplicate.
Citrate synthase catalyzes the reaction between acetyl coenzyme A (acetyl CoA) and oxaloacetic acid (OAA) to form citric acid. […]

[2] = tested on: diet induced obese (DIO) mouse; assay: Diet Induced Obesity (DIO) mouse model; assay type: in vivo, C57BL/6 mice; details: for plasma insulin: SRT1933 100 mg/kg, rosiglitazone 5 mg/kg once daily oral
Method: The vehicle used was 2% HPMC −0.2% DOSS. Individual mouse body weights were measured twice weekly. Every 2 weeks throughout the study, mice from each group were bled via the tail vein for determination of blood glucose and blood plasma insulin. After 1, 3 and 5 weeks of dosing, a fasted blood glucose measure was taken and after 5 weeks of treatment an IPGTT was conducted on all mice from each of the groups. After 9 weeks of treatment, an ITT was conducted and a rectal body temperature was taken on all mice from each of the groups. Statistical analysis was completed using the JMP program (Version 6). Data were analyzed by a one way ANOVA with comparison to control using a Dunnett's Test. A p value <0.05 indicated a significant difference between groups.

Human SIRT1 = biological target: T1, Human SIRT1 (Homo sapiens, UniProt Q96EB6); assay: SIRT1 mass spectrometry deacetylase assay; assay type: biochemical
T1 construct: hexa-histidine (N); made in house; host or cells: E. coli BL21(DE3)Star
T1 sequence (Q96EB6 1-747): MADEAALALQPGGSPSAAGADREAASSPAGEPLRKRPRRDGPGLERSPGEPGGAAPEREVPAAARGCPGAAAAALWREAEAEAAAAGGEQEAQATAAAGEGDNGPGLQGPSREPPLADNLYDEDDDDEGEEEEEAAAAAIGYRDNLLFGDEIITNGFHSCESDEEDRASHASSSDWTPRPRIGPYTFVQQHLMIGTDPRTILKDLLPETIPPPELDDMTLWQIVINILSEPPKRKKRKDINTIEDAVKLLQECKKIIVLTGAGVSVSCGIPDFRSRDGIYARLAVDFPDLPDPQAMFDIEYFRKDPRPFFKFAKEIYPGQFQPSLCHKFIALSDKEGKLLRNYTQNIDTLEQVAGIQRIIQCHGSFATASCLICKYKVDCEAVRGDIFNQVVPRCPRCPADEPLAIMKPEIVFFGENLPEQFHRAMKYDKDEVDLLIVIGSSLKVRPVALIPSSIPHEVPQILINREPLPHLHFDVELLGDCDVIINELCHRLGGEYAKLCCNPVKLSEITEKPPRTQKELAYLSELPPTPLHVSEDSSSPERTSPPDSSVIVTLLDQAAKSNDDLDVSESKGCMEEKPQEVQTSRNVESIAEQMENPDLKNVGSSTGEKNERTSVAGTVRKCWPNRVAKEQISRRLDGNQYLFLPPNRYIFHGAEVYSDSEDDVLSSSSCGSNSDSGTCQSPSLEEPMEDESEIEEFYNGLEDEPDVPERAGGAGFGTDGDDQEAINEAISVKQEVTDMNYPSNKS
From the text: The following example describes methods for the identification and characterization of Sirt1 activators. Human SIRT1 is expressed from the pSIRT1FL vector which places expression under the control of the T7 promoter. The protein was expressed in E. coli BL21(DE3)Star as an N-terminal fusion to a hexa-histidine affinity tag. The expressed protein was purified by Ni^2+-chelate chromatography. The eluted protein was then purified by size exclusion chromatography followed by ion exchange. The resulting protein was typically >95% pure as assessed by SDS-PAGE analysis. The mass spectrometry based assay utilizes a peptide having 20 amino acid residues as follows: Ac-Glu-Glu-Lys(Biotin)-[…]Ac)-Nle-Ser-Thr-Glu-Gly-Lys(5TMR)-Glu-Glu-NH2 (SEQ ID NO:2) wherein K(Ac) is an acetylated lysine residue and Nle is a norleucine. The peptide is labeled with the fluorophore 5TMR (excitation 540 nm/emission 580 nm) at the C-terminus for use in the FP assay described above. The sequence of the peptide substrate is based on p53 with several modifications.
The mass spectrometry assay was conducted as follows: 0.5 μM peptide substrate and 120 μM βNAD^+ was incubated with 10 nM SIRT1 for 25 minutes at 25° C. in a reaction buffer (50 mM Tris-acetate pH 8, 137 mM NaCl, 2.7 mM KCl, 1 mM MgCl2, 5 mM DTT, 0.05% BSA). Test compounds were added to the reaction or vehicle control, DMSO. After the incubation with SIRT1, 10% formic acid was added to stop the reaction. Determination of the mass of the substrate peptide allows for precise determination of the degree of acetylation (i.e. starting material) as compared to deacetylated peptide (product).
The activity of an exemplary compound against SIRT1 enzyme was profiled using a mass spectrometry readout. In this assay the conversion of acetylated peptide substrate to deacetylated peptide product is tracked by monitoring the change in mass ([…]) upon loss of the acetyl group. […]

[3] = tested on: diet induced obese (DIO) mouse; assay: Diet Induced Obesity (DIO) mouse model; assay type: in vivo, C57BL/6 mice; details: DIO mice
[4] = Plasma exposure after oral gavage in mice; assay type: in vivo, C57BL/6 mice; details: 100 mg/kg once daily by oral gavage, each day
Method: The following example describes the in vivo effects of a novel SIRT1 activator. The compound was administered via oral gavage at the doses indicated in FIG. 2a in […] male mice, 18-22 grams (Wilmington, Mass. Charles River Labs), 3 mice per group and blood plasma was collected at 5, 30, 120 and 360 minute time points. The compound was administered in 2% HPMC+0.2% DOSS. Mice were sacrificed at proper time points using CO2 overdose (place in CO2 chamber 40 seconds before time point). Blood was collected in microtainer blood tubes with Lithium Heparin and plasma separator and frozen plasma was sent to Charles River Labs (CRL) for analysis. To determine oral bioavalability, the compound was administered into the tail vein at 0.1, 0.3 and 1.0 mg/kg doses in C57BL/6 male mice, 18-22 grams (Wilmington, Mass. Charles River Labs), 3 mice per group and blood plasma was collected at 5, 30, 120 and 360 minute time points. Compounds were administered in 10% ethanol/ 40% Polyethylene glycol/50% H2O for IV studies. Mice were sacrificed at proper time points using CO2 overdose (place in CO2 chamber 40 seconds before time point). Blood was collected and analyzed as described above.

Row | SMILES | increase in citrate synthase activity ([1]; gastrocnemius muscle, DIO mice, after 11 weeks of treatment) | citrate synthase activity in adipose tissue ([1]; n=5, after 11 weeks (FIG. 2g)) | mitochondrial capacity (citrate synthase activity) in skeletal muscle ([1]; n=5, after 11 weeks (FIG. 2g)) | nonfasting blood glucose levels ([2]; DIO mice, 100 mg/kg once daily oral, by week 2, maintained over 10 week period) | insulin sensitivity relative to vehicle assessed by ITT ([2]; DIO mice, ITT after 9 weeks of treatment) | fasting blood glucose levels ([2]; DIO mice, once daily oral dosing) | plasma insulin ([2]; DIO mice) | body temperature ([2]; SRT1933 treated groups (FIG. 2f)) | lowering of core body temperature ([2]; both DIO mice and normal chow fed mice) | effect on insulin levels ([2]; mice fed a normal chow diet, over the course of the study) | Emax (Human SIRT1; at the highest doses of compound tested, read-out: maximum activation) | EC1.5 (Human SIRT1; read-out: EC1.5 (concentration of compound required to increase enzyme activity by 50%), mass spectrometry readout, 10 nM SIRT1, 0.5 μM peptide substrate, 120 μM βNAD+) | EC1.5 (Human SIRT1; read-out: EC1.5, as quoted in legend of FIG. 2a) | glucose tolerance in an OGTT relative to vehicle [3] | glucose excursion in OGTT (AUC) ([3]; after 5 weeks of treatment, SRT1933 100 mg/kg, rosiglitazone 5 mg/kg once daily oral) | duration of exposure above EC1.5 [4]
1 | O=C(Nc1ccccc1-c1cn2c(CN3CCNCC3)csc2n1)c1cnc2ccccc2n1 [SRT1933] | 15% | trend | significant increase | normalized | improvement in insulin sensitivity | normalized | 2.1 ± 0.1 ng/mL | decreased | ~1 °C | did not have a significant effect | > 900% | 160 nM | 440 nM | improved glucose tolerance | 462 ± 25 mg·h/dL | at least 16 hours
2 | CN(CCOc1ccc(CC2SC(=O)NC2=O)cc1)c1ccccn1 (centres unmarked) [rosiglitazone, reference compound] | – | – | – | – | – | – | 0.9 ± 0.1 ng/mL | – | – | – | – | – | – | – | – | –
